Measurements: patent publication US20030104507A1, “Method for detection of ATP” (priority 2001, published 2003)

Test system: ATPase activity endogenous to L929 cell lysate
Test: Detergent inhibition of ATPase endogenous to L929 cell lysate (ATP remaining by luciferase luminescence, 22° C.)
Format: biochemical
Parameters: key to Relative ATPase Activity, slope det/slope lysate: slope with detergent / slope without; ≥1.0 = 100% activity, 0.5 = 50%
Conditions: for concentrations which resulted in a 25% or greater decrease in the relative ATPase activity: compared to reactions in the absence of detergent
Procedure: Three separate detergents in each of four detergent classes were tested: anionic [SDS (Sodium dodecyl sulfate), Bioterge (an α olefin sulfate), and sodium deoxycholate], nonionic [TRITON X-100, BigCHAP (N,N-bis(3-D-Gluconamidopropyl)cholamide) and THESIT (polyethylene glycol 400 dodecyl ether, Fluka, #88315)], cationic [BDDABr (Benzyldimethyldodecylammonium bromide), CTAB (Cetyltrimethylammonium bromide), and DTAB (dodecyltrimethylammonium bromide)] and zwitterionic [CHAPS (3[(3-Cholamidopropyl)dimethylammonio]propanesulfonic acid), CHAPSO (3-([3-Cholamidopropyl]dimethylammonio)-2-hydroxy-1-propanesulfonate), and Sulfobetaine 3-10 ([…]-N,N-dimethyl-3-ammonio-1-propanesulfonate)]. Detergents were obtained from Sigma, Fluka and Aldrich.
L929 cells (ATCC CCL-1; 1.5×10^5 cells/ml) in F12/DMEM (Hyclone, SH30023) containing 10% horse serum (Hyclone, SH30074) were frozen and thawed for four cycles to create a cell lysate. Then 50 μl of stock detergent solutions [10%, 5.0%, 1.0%, and 0.5% (w/v)] were separately added to 450 μl cell lysate, creating a final detergent concentration in the cell lysate sample of 1.0%, 0.5%, 0.1%, and 0.05%, respectively (these percentage values are those used in Tables D and E herein below). Control samples contained either lysate only or 1.0 μM ATP in 15 mM HEPES buffer (pH 7.5). All samples were incubated at 22° C. (room temperature) for the duration of the experiment.
At various timepoints, 20 μl from each sample/detergent mixture was added to a 96-well luminometer plate in triplicate, and then 100 μl of a solution (“luciferase-luciferin” or “L/L reagent”) containing 25 mM HEPES buffer (pH 7.5), 40 μg luciferase enzyme LucPpe2m146 (Promega, E140), 100 μM luciferin (Promega), and 10 mM MgSO4 was added to each well. The L/L reagent was stored at 4° C. for the duration of the experiment and then allowed to reach ambient temperature just before assaying. After mixing the contents of the plate, light output was measured with a Dynex MLX microtiter plate luminometer (Chantilly, Va.), 0.5 second reads per well with the first measurement taken five minutes after the detergent solution was combined with the sample. The average relative light units and the timepoint at which it was measured (rlu; Table D) and percent of remaining luciferase activity at the timepoint (Table E) are reported; controls were run with each set of experimental conditions as indicated. The cationic and anionic detergents were assayed on one day with one set of controls. The zwitterionic and nonionic detergents were assayed on a separate day with a separate set of controls. The DTAB at 0.5% was assayed on both days (1 and 2).
The experiment was performed as detailed in Example 1. The average relative light unit values and the percent of ATP remaining values are listed below in Table F and G respectively.
The log of the percent of ATP remaining after original timepoint values from Table E and Table G were plotted on the y axis against time (in minutes) on the x axis. The slope of the line generated by these values in the presence of detergent was divided by the slope of the line generated by the values in the absence of detergent (lysate control) resulting in the Relative ATPase Activity values listed below in Table H.
A relative activity value of 1.0 or greater indicates 100% cellular ATPase activity at the concentration of detergent tested. A relative activity value of 0.5 indicates a two-fold (or 50%) decrease in the level of cellular ATPase activity at the concentration of detergent tested when compared to the ATPase activity level in the absence of the detergent. A relative activity value of 0.2 indicates a five-fold (or 80%) decrease in the level of cellular ATPase activity at the concentration of detergent tested when compared to the ATPase activity level in the absence of the detergent.

[1] = Example 2, 0.02% detergent, 5 min
[2] = Example 2, 0.02% detergent, 75 min
[3] = Example 2, 0.02% detergent, 169 min
[4] = Example 2, 0.02% detergent, 222 min
[5] = Example 2, 0.02% detergent, 260 min
[6] = Example 2, 0.002% detergent, 5 min
[7] = Example 2, 0.002% detergent, 75 min
[8] = Example 2, 0.002% detergent, 169 min
[9] = Example 2, 0.002% detergent, 222 min
[10] = Example 2, 0.002% detergent, 260 min
[11] = Example 2, 0.01% detergent, 5 min
[12] = Example 2, 0.01% detergent, 75 min
[13] = Example 2, 0.01% detergent, 169 min
[14] = Example 2, 0.01% detergent, 222 min
[15] = Example 2, 0.01% detergent, 260 min

CCCCCCCCCCCC[N+](C)(C)CCCS(=O)(=O)[O-] [Sulfobetaine 3-10, N-Dodecyl-N,N-dimethyl-3-ammonio-1-propanesulfonate]
Relative ATPase Activity, slope det/slope lysate (0.02 percent detergent): 1.009 | Slope (log percent ATP remaining vs time in minutes) (0.02 percent detergent): −0.0064 | Average Relative Light Unit Values (0.05% detergent, 5 min): 6247.31 rlu | Percent ATP Remaining (0.05% detergent, 5 min): 100% | Average Relative Light Unit Values (0.05% detergent, 75 min): 2270.13 rlu | Percent ATP Remaining (0.05% detergent, 75 min): 36.3% | Average Relative Light Unit Values (0.05% detergent, 169 min): 1053.56 rlu | Percent ATP Remaining (0.05% detergent, 169 min): 16.9% | Average Relative Light Unit Values (0.05% detergent, 222 min): 465.03 rlu | Percent ATP Remaining (0.05% detergent, 222 min): 7.4% | Average Relative Light Unit Values (0.05% detergent, 260 min): 233.19 rlu | Percent ATP Remaining (0.05% detergent, 260 min): 3.7% | Relative ATPase Activity, slope det/slope lysate (0.05 percent detergent): 1.077 | Slope (log percent ATP remaining vs time in minutes) (0.05 percent detergent): −0.0057 | Average Relative Light Unit Values (0.1% detergent, 5 min): 6506.61 rlu | Percent ATP Remaining (0.1% detergent, 5 min): 100% | Average Relative Light Unit Values (0.1% detergent, 75 min): 2367.27 rlu | Percent ATP Remaining (0.1% detergent, 75 min): 36.4% | Average Relative Light Unit Values (0.1% detergent, 169 min): 1100.37 rlu | Percent ATP Remaining (0.1% detergent, 169 min): 16.9% | Average Relative Light Unit Values (0.1% detergent, 222 min): 446.29 rlu | Percent ATP Remaining (0.1% detergent, 222 min): 6.9% | Average Relative Light Unit Values (0.1% detergent, 260 min): 222.22 rlu | Percent ATP Remaining (0.1% detergent, 260 min): 3.4% | Relative ATPase Activity, slope det/slope lysate (0.10 percent detergent): 1.109 | Slope (log percent ATP remaining vs time in minutes) (0.10 percent detergent): −0.0058 | Average Relative Light Unit Values (0.5% detergent, 5 min): 6565.98 rlu | Percent ATP Remaining (0.5% detergent, 5 min): 100% | Average Relative Light Unit Values (0.5% detergent, 75 min): 2405.95 rlu | Percent ATP Remaining (0.5% detergent, 75 min): 36.6% | Average Relative Light Unit Values (0.5% detergent, 169 min): 1211.13 rlu | Percent ATP Remaining (0.5% detergent, 169 min): 18.4% | Average Relative Light Unit Values (0.5% detergent, 222 min): 609.75 rlu | Percent ATP Remaining (0.5% detergent, 222 min): 9.3% | Average Relative Light Unit Values (0.5% detergent, 260 min): 391.64 rlu | Percent ATP Remaining (0.5% detergent, 260 min): 6.0% | Relative ATPase Activity, slope det/slope lysate (0.50 percent detergent): 0.921 | Slope (log percent ATP remaining vs time in minutes) (0.50 percent detergent): −0.0049 | Average Relative Light Unit Values (1.0% detergent, 5 min): 7861.36 rlu | Percent ATP Remaining (1.0% detergent, 5 min): 100% | Average Relative Light Unit Values (1.0% detergent, 75 min): 5703.51 rlu | Percent ATP Remaining (1.0% detergent, 75 min): 72.6% | Average Relative Light Unit Values (1.0% detergent, 169 min): 4318.46 rlu | Percent ATP Remaining (1.0% detergent, 169 min): 54.9% | Average Relative Light Unit Values (1.0% detergent, 222 min): 3075.12 rlu | Percent ATP Remaining (1.0% detergent, 222 min): 39.1% | Average Relative Light Unit Values (1.0% detergent, 260 min): 2193.02 rlu | Percent ATP Remaining (1.0% detergent, 260 min): 27.9% | Relative ATPase Activity, slope det/slope lysate (1.00 percent detergent): 0.417 | Slope (log percent ATP remaining vs time in minutes) (1.00 percent detergent): −0.0022 | Average Relative Light Unit Values [1]: 6120.5 rlu | Percent ATP Remaining [1]: 100.00% | Average Relative Light Unit Values [2]: 1622.61 rlu | Percent ATP Remaining [2]: 26.51% | Average Relative Light Unit Values [3]: 291.09 rlu | Percent ATP Remaining [3]: 4.76% | Average Relative Light Unit Values [4]: 245.55 rlu | Percent ATP Remaining [4]: 4.01% | Average Relative Light Unit Values [5]: 136.43 rlu | Percent ATP Remaining [5]: 2.23% | concentrations which resulted in a 25% or greater decrease in the relative ATPase activity: ≥ 1%

CCCCCCCCCCCCOS(=O)(=O)[O-].[Na+] [SDS, Sodium dodecyl sulfate]
Relative ATPase Activity, slope det/slope lysate (0.002 percent detergent): 1.010 | Slope (log percent ATP remaining vs time in minutes) (0.002 percent detergent): −0.0064 | Relative ATPase Activity, slope det/slope lysate (0.01 percent detergent): 0.702 | Slope (log percent ATP remaining vs time in minutes) (0.01 percent detergent): −0.00385 | Average Relative Light Unit Values (0.05% detergent, 5 min): 1181.17 rlu | Percent ATP Remaining (0.05% detergent, 5 min): 100% | Average Relative Light Unit Values (0.05% detergent, 75 min): 1060.03 rlu | Percent ATP Remaining (0.05% detergent, 75 min): 89.7% | Average Relative Light Unit Values (0.05% detergent, 169 min): 949.7 rlu | Percent ATP Remaining (0.05% detergent, 169 min): 80.4% | Average Relative Light Unit Values (0.05% detergent, 222 min): 921.86 rlu | Percent ATP Remaining (0.05% detergent, 222 min): 78.0% | Average Relative Light Unit Values (0.05% detergent, 260 min): 803.0 rlu | Percent ATP Remaining (0.05% detergent, 260 min): 68.0% | Relative ATPase Activity, slope det/slope lysate (0.05 percent detergent): 0.105 | Slope (log percent ATP remaining vs time in minutes) (0.05 percent detergent): −0.0006 | Average Relative Light Unit Values (0.1% detergent, 5 min): 0.31 rlu | Average Relative Light Unit Values (0.1% detergent, 75 min): 0.18 rlu | Average Relative Light Unit Values (0.1% detergent, 169 min): 0.21 rlu | Average Relative Light Unit Values (0.1% detergent, 222 min): 0.26 rlu | Average Relative Light Unit Values (0.1% detergent, 260 min): 0.34 rlu | Average Relative Light Unit Values (0.5% detergent, 5 min): 0.00 rlu | Average Relative Light Unit Values (0.5% detergent, 75 min): 0.00 rlu | Average Relative Light Unit Values (0.5% detergent, 169 min): 0.02 rlu | Average Relative Light Unit Values (0.5% detergent, 222 min): 0.00 rlu | Average Relative Light Unit Values (0.5% detergent, 260 min): 0.00 rlu | Average Relative Light Unit Values (1.0% detergent, 5 min): 0.01 rlu | Average Relative Light Unit Values (1.0% detergent, 75 min): 0.00 rlu | Average Relative Light Unit Values (1.0% detergent, 169 min): 0.01 rlu | Average Relative Light Unit Values (1.0% detergent, 222 min): 0.00 rlu | Average Relative Light Unit Values (1.0% detergent, 260 min): 0.01 rlu | Average Relative Light Unit Values [6]: 5773.39 rlu | Percent ATP Remaining [6]: 100.00% | Average Relative Light Unit Values [7]: 1574.34 rlu | Percent ATP Remaining [7]: 27.27% | Average Relative Light Unit Values [8]: 278.67 rlu | Percent ATP Remaining [8]: 4.83% | Average Relative Light Unit Values [9]: 236.28 rlu | Percent ATP Remaining [9]: 4.09% | Average Relative Light Unit Values [10]: 128.58 rlu | Percent ATP Remaining [10]: 2.23% | Average Relative Light Unit Values [11]: 13116.20 rlu | Percent ATP Remaining [11]: 100.00% | Average Relative Light Unit Values [12]: 10753.03 rlu | Percent ATP Remaining [12]: 48.62% | Average Relative Light Unit Values [13]: 12051.63 rlu | Percent ATP Remaining [13]: 25.80% | Average Relative Light Unit Values [14]: 11822.03 rlu | Percent ATP Remaining [14]: 14.20% | Average Relative Light Unit Values [15]: 11900.73 rlu | Percent ATP Remaining [15]: 8.79% | times more ATP present in the sample after four hours when the detergent was present than when it was absent (SDS 0.05%, deoxycholate 0.5% and 0.1%): about three to about twenty | concentrations which resulted in a 25% or greater decrease in the relative ATPase activity: ≥ 0.01%
